In patent US9924717B2, “Molecules having pesticidal utility, and intermediates, compositions, and processes, related thereto” (Dow AgroSciences LLC, priority 2016, dated 2018):

How the values were obtained:
Format in all cases: in vivo
[1] = test system: Cabbage Looper (Trichoplusia ni, TRIPNI) (CL); experiment: Bioassays on Cabbage Looper (CL), 128-well diet tray assay; settings: Table ABC rating, Cabbage Looper
Method: (§1) Example A: Bioassays on Beet Armyworm (Spodoptera exigua, LAPHEG) (“BAW”), Corn Earworm (Helicoverpa zea, Helize) (“CEW”), and Cabbage Looper (Trichoplusia ni, TRIPNI) (“CL”)
(§2) Certain molecules disclosed in this document were tested against BAW, CEW, and CL using procedures described in the following examples. In the reporting of the results, the “BAW, CEW, & CL Rating Table” was used (See Table Section).
Bioassays on CL were conducted using a 128-well diet tray assay. one to five second instar CL larvae were placed in each well (3 mL) of the diet tray that had been previously filled with 1 mL of artificial diet to which 50 μg/cm^2 of the test molecule (dissolved in 50 μL of 90:10 acetone-water mixture) had been applied (to each of eight wells) and then allowed to dry. Trays were covered with a clear self-adhesive cover and held at 25° C., 14:10 light-dark for five to seven days. Percent mortality was recorded for the larvae in each well; activity in the eight wells was then averaged. The results are indicated in the table entitled “Table ABC: Biological Results” (See Table Section).
(§3) Bioassays on BAW and CL were conducted according to the procedures outlined in Example A: Bioassays on Beet Armyworm (“BAW”) and Cabbage Looper (“CL”) using the indicated concentrations.

[2] = test system: Yellow Fever Mosquito (Aedes aegypti, AEDSAE) (YFM); experiment: Bioassays on Yellow Fever Mosquito (YFM), 96-well plate larval assay; settings: Table ABC rating
Method: Example C: Bioassays on Yellow Fever Mosquito (Aedes aegypti, AEDSAE) (“YFM”)
Certain molecules disclosed in this document were tested against YFM using procedures described in the following paragraph. In the reporting of the results, the “GPA & YFM Rating Table” was used (See Table Section).
Master plates containing 400 μg of a molecule dissolved in 100 μL of dimethyl sulfoxide (DMSO) (equivalent to a 4000 ppm solution) are used. A master plate of assembled molecules contains 15 μL per well. To this plate, 135 μL of a 90:10 water:acetone mixture is added to each well. A robot (Biomek® NXP Laboratory Automation Workstation) is programmed to dispense 15 μL aspirations from the master plate into an empty 96-well shallow plate (“daughter” plate). There are 6 reps (“daughter” plates) created per master. The created daughter plates are then immediately infested with YFM larvae.
The day before plates are to be treated, mosquito eggs are placed in Millipore water containing liver powder to begin hatching (4 g. into 400 mL). After the daughter plates are created using the robot, they are infested with 220 μL of the liver powder/larval mosquito mixture (about 1 day-old larvae). After plates are infested with mosquito larvae, a non-evaporative lid is used to cover the plate to reduce drying. Plates are held at room temperature for 3 days prior to grading. After 3 days, each well is observed and scored based on mortality. The results are indicated in the table entitled “Table ABC: Biological Results” (See Table Section).

[3] = test system: Beet Armyworm (Spodoptera exigua, LAPHEG) (BAW); experiment: Bioassays on Beet Armyworm (BAW), 128-well diet tray assay; settings: Table ABC rating, Beet Armyworm
Method: as §1, §2
Bioassays on BAW were conducted using a 128-well diet tray assay. one to five second instar BAW larvae were placed in each well (3 mL) of the diet tray that had been previously filled with 1 mL of artificial diet to which 50 μg/cm^2 of the test molecule (dissolved in 50 μL of 90:10 acetone-water mixture) had been applied (to each of eight wells) and then allowed to dry. Trays were covered with a clear self-adhesive cover and held at 25° C., 14:10 light-dark for five to seven days. Percent mortality was recorded for the larvae in each well; activity in the eight wells was then averaged. The results are indicated in the table entitled “Table ABC: Biological Results” (See Table Section).
as §3

SMILES	pest or weed control at 50 µg/cm2 [1] [%]	YFM [2]	pest or weed control at 50 µg/cm2 [3] [%]
O=C(NC1CCC(F)(F)CC1)c1ccc(/C(F)=C/C(c2cc(Br)c(Cl)c(Br)c2)C(F)(F)F)cc1C(F)(F)F (stereo not drawn) [F32, (Z)-4-(3-(3,5-Dibromo-4-chlorophenyl)-1,4,4,4-tetrafluorobut-1-en-1-yl)-N-(4,4-difluorocyclohexyl)-2-(trifluoromethyl)benzamide]	50 to 100	A (80-100)	50 to 100
F/C(=C\C(c1cc(Cl)c(Cl)c(Cl)c1)C(F)(F)F)c1ccc(C(=S)NCC(F)(F)F)c(C(F)(F)F)c1 (stereo not drawn) [F33, (Z)-4-(1,4,4,4-tetrafluoro-3-(3,4,5-trichlorophenyl)but-1-en-1-yl)-N-(2,2,2-trifluoroethyl)-2-(trifluoromethyl)benzothioamide]	50 to 100	B (More than 0-Less than 80)	50 to 100
CN(CC(F)(F)F)C(=S)c1ccc(/C(F)=C/C(c2cc(Cl)c(Cl)c(Cl)c2)C(F)(F)F)cc1C(F)(F)F (stereo not drawn) [F34, (Z)—N-Methyl-4-(1,4,4,4-tetrafluoro-3-(3,4,5-trichlorophenyl)but-1-en-1-yl)-N-(2,2,2-trifluoroethyl)-2-(trifluoromethyl)benzothioamide]	50 to 100	B (More than 0-Less than 80)	50 to 100
O=C(NC1CCC(F)(F)CC1)c1ccc(/C(F)=C/C(c2cc(Br)cc(Br)c2)C(F)(F)F)cc1C(F)(F)F (stereo not drawn) [F40, (Z)-4-(3-(3,5-Dibromophenyl)-1,4,4,4-tetrafluorobut-1-en-1-yl)-N-(4,4-difluorocyclohexyl)-2-(trifluoromethyl)benzamide]	50 to 100	A (80-100)	50 to 100
O=C(NC1CCC(F)(F)CC1)c1ccc(/C(F)=C/C(c2cc(Cl)c(F)c(Cl)c2)C(F)(F)F)cc1C(F)(F)F (stereo not drawn) [F41, (Z)-4-(3-(3,5-Dichloro-4-fluorophenyl)-1,4,4,4-tetrafluorobut-1-en-1-yl)-N-(4,4-difluorocyclohexyl)-2-(trifluoromethyl)benzamide]	50 to 100	A (80-100)	50 to 100
O=C(NC1CC1)c1ccc(/C(F)=C/C(c2cc(Br)cc(Br)c2)C(F)(F)F)cc1C(F)(F)F (stereo not drawn) [F42, (Z)—N-Cyclopropyl-4-(3-(3,5-dibromophenyl)-1,4,4,4-tetrafluorobut-1-en-1-yl)-2-(trifluoromethyl)benzamide]	50 to 100	A (80-100)	50 to 100
O=C(NC1CC1)c1ccc(/C(F)=C/C(c2cc(Cl)c(F)c(Cl)c2)C(F)(F)F)cc1C(F)(F)F (stereo not drawn) [F43, (Z)—N-Cyclopropyl-4-(3-(3,5-dichloro-4-fluorophenyl)-1,4,4,4-tetrafluorobut-1-en-1-yl)-2-(trifluoromethyl)benzamide]	50 to 100	A (80-100)	50 to 100
O=C(NC1CCC(F)(F)CC1)c1ccc(/C(F)=C/C(c2ccc(Br)c(Br)c2)C(F)(F)F)cc1C(F)(F)F (stereo not drawn) [F44, (Z)-4-(3-(3,4-Dibromophenyl)-1,4,4,4-tetrafluorobut-1-en-1-yl)-N-(4,4-difluorocyclohexyl)-2-(trifluoromethyl)benzamide]	50 to 100	A (80-100)	50 to 100
CC(NC(=O)c1ccc(/C(F)=C/C(c2ccc(Br)c(Br)c2)C(F)(F)F)cc1C(F)(F)F)C(F)(F)F (stereo not drawn) [F45, 4-((Z)-3-(3,4-Dibromophenyl)-1,4,4,4-tetrafluorobut-1-en-1-yl)-2-(trifluoromethyl)-N-(1,1,1-trifluoropropan-2-yl)benzamide]	50 to 100	B (More than 0-Less than 80)	50 to 100
O=C(NC1CC1)c1ccc(/C(F)=C/C(c2ccc(Br)c(Br)c2)C(F)(F)F)cc1C(F)(F)F (stereo not drawn) [F46, (Z)—N-Cyclopropyl-4-(3-(3,4-dibromophenyl)-1,4,4,4-tetrafluorobut-1-en-1-yl)-2-(trifluoromethyl)benzamide]	50 to 100	A (80-100)	50 to 100
